Experimental findings from patent US10577363B2, “Substituted piperidine compounds” (EPIZYME, INC., priority 2014, dated 2020) are described below.

The test has as its target SMYD3 (Homo sapiens (Human), UniProt Q9H7B4). The test can be described thus: SMYD3 biochemical assay (SPA, 3H-SAM methylation of MEKK2 protein substrate). Particulars: read-out: SMYD3 Biochem IC50 (μM)*. Summed up: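 SPA methyltransferase format: tag-cleaved human SMYD3, insect-cell GST-MEKK2 protein substrate, 3H-SAM donor, 30 min RT enzyme–compound preincubation, 100 uM cold SAM quench.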

The structures appear in SMILES notation.

With `C[C@@H]1C[C@@H](NC(=O)c2cc(C3CC3)on2)CCN1C(=O)CCCN` [compound 208, N-((2R,4S)-1-(4-aminobutanoyl)-2-methylpiperidin-4-yl)-5-cyclopropylisoxazole-3-carboxamide], the IC50 amounted to 3.82 µM.

`C[C@@H]1C[C@@H](NC(=O)c2cc(C3CC3)on2)CCN1S(=O)(=O)CCCN` [compound 209, N-((2R,4S)-1-((3-aminopropyl)sulfonyl)-2-methylpiperidin-4-yl)-5-cyclopropylisoxazole-3-carboxamide]: the IC50 worked out at 0.1 µM. As to `NCCCC(=O)N1C2CCCC1CC(NC(=O)c1cc(C3CC3)on1)C2` (stereo not shown) [compound 211, N-(9-(4-aminobutanoyl)-9-azabicyclo[3.3.1]nonan-3-yl)-5-cyclopropylisoxazole-3-carboxamide], the half-maximal inhibitory concentration (IC50) came out at 5.85 µM. In the case of `C[C@@H]1C[C@H](NC(=O)c2cc(C3CC3)on2)CCN1C(=O)CCCCN` [compound 212, N-((2R,4R)-1-(5-aminopentanoyl)-2-methylpiperidin-4-yl)-5-cyclopropylisoxazole-3-carboxamide] it was 0.838 µM; in that of `C[C@@H]1C[C@@H](NC(=O)c2cc(C3CC3)on2)CCN1S(=O)(=O)C1CC1` [compound 213, 5-cyclopropyl-N-((2R,4S)-1-(cyclopropylsulfonyl)-2-methylpiperidin-4-yl)isoxazole-3-carboxamide], above 10 µM. In the case of `CNS(=O)(=O)N1CC[C@H](NC(=O)c2cc(C3CC3)on2)C[C@H]1C` [compound 214, 5-cyclopropyl-N-((2R,4S)-2-methyl-1-(N-methylsulfamoyl)piperidin-4-yl)isoxazole-3-carboxamide] it was above 10 µM; in that of `COCCS(=O)(=O)N1CC[C@H](NC(=O)c2cc(C3CC3)on2)C[C@H]1C` [compound 215, 5-cyclopropyl-N-((2R,4S)-1-((2-methoxyethyl)sulfonyl)-2-methylpiperidin-4-yl)isoxazole-3-carboxamide], above 10 µM; in that of `C[C@@H]1C[C@H](NC(=O)c2cc(C3CC3)on2)CCN1S(=O)(=O)C1CC1` [compound 216, 5-cyclopropyl-N-((2R,4R)-1-(cyclopropylsulfonyl)-2-methylpiperidin-4-yl)isoxazole-3-carboxamide], above 10 µM.

As to `CNS(=O)(=O)N1CC[C@@H](NC(=O)c2cc(C3CC3)on2)C[C@H]1C` [compound 217, 5-cyclopropyl-N-((2R,4R)-2-methyl-1-(N-methylsulfamoyl)piperidin-4-yl)isoxazole-3-carboxamide], the IC50 was 6.76 µM. Consider `CC(C)(C)C1CC(NC(=O)c2cc(C3CC3)on2)CCN1C(=O)CCCN` (stereo not shown) [compound 219, N-(1-(4-aminobutanoyl)-2-(tert-butyl)piperidin-4-yl)-5-cyclopropylisoxazole-3-carboxamide], for which the IC50 worked out at 6.32 µM. To `NCCCC(=O)N1CC[C@@H](NC(=O)c2cc(C3CC3)on2)[C@H](c2ccccc2)C1` [compound 220, N-((3R,4R)-1-(4-aminobutanoyl)-3-phenylpiperidin-4-yl)-5-cyclopropylisoxazole-3-carboxamide] belongs 2.52 µM; to `NCCCC(=O)N1CC[C@H](NC(=O)c2cc(C3CC3)on2)[C@H](c2ccccc2)C1` [compound 221, N-((3R,4S)-1-(4-aminobutanoyl)-3-phenylpiperidin-4-yl)-5-cyclopropylisoxazole-3-carboxamide], above 10 µM. To `C[C@H]1CC(NC(=O)c2cc(C3CC3)on2)CCN1C(=O)C12C3C4C1C1C2C3C41N` (stereo partly drawn) [compound 222, N-((2S)-1-(4-aminocubane-1-carbonyl)-2-methylpiperidin-4-yl)-5-cyclopropylisoxazole-3-carboxamide] belongs 4.64 µM. In the case of `C[C@H]1CC(NC(=O)c2cc(C3CC3)on2)CCN1C(=O)CC1(O)CCNCC1` (stereo partly drawn) [compound 223, 5-cyclopropyl-N-((2S)-1-(2-(4-hydroxypiperidin-4-yl)acetyl)-2-methylpiperidin-4-yl)isoxazole-3-carboxamide] it was 7.19 µM.

Turning to `C[C@@H]1CC(NC(=O)c2cc(C3CC3)on2)CCN1C(=O)C1(C)CCNCC1` (stereo partly drawn) [compound 224, 5-cyclopropyl-N-((2R)-2-methyl-1-(4-methylpiperidine-4-carbonyl)piperidin-4-yl)isoxazole-3-carboxamide], the IC50 is 1.42 µM. To `C[C@@H]1C[C@@H](NC(=O)c2cc(C3CC3)on2)CCN1C(=O)CC(O)CN` (stereo partly drawn) [compound 225, N-((2R,4S)-1-(4-amino-3-hydroxybutanoyl)-2-methylpiperidin-4-yl)-5-cyclopropylisoxazole-3-carboxamide] belongs 9.05 µM. In the case of `C[C@H]1CC(NC(=O)c2cc(C3CC3)on2)CCN1C(=O)CC1CCCC(N)C1` (stereo partly drawn) [compound 226, N-((2S)-1-(2-(3-aminocyclohexyl)acetyl)-2-methylpiperidin-4-yl)-5-cyclopropylisoxazole-3-carboxamide] it was 2.38 µM; in that of `C[C@H]1C[C@@H](NC(=O)c2cc(C3CC3)on2)CCN1C(=O)CCCCN` [compound 228, N-((2S,4S)-1-(5-aminopentanoyl)-2-methylpiperidin-4-yl)-5-cyclopropylisoxazole-3-carboxamide], 1.28 µM.

`CCCS(=O)(=O)N1CC[C@H](NC(=O)c2cc(C3CC3)on2)C[C@@H]1C` [compound 229, 5-cyclopropyl-N-((2S,4S)-2-methyl-1-(propylsulfonyl)piperidin-4-yl)isoxazole-3-carboxamide]: the 50% inhibitory concentration (IC50) was determined as 0.863 µM. Turning to `CC(C)CS(=O)(=O)N1CC[C@H](NC(=O)c2cc(C3CC3)on2)C[C@@H]1C` [compound 230, 5-cyclopropyl-N-((2S,4S)-1-(isobutylsulfonyl)-2-methylpiperidin-4-yl)isoxazole-3-carboxamide], the IC50 was determined as 0.472 µM. To `CCOC(=O)CS(=O)(=O)N1CC[C@H](NC(=O)c2cc(C3CC3)on2)C[C@@H]1C` [compound 231, ethyl 2-(((2S,4S)-4-(5-cyclopropylisoxazole-3-carboxamido)-2-methylpiperidin-1-yl)sulfonyl)acetate] belongs 1.17 µM; to `C[C@H]1C[C@@H](NC(=O)c2cc(C3CC3)on2)CCN1S(=O)(=O)CC(F)(F)F` [compound 232, 5-cyclopropyl-N-((2S,4S)-2-methyl-1-((2,2,2-trifluoroethyl)sulfonyl)piperidin-4-yl)isoxazole-3-carboxamide], 3.26 µM; to `COCCS(=O)(=O)N1CC[C@H](NC(=O)c2cc(C3CC3)on2)C[C@@H]1C` [compound 233, 5-cyclopropyl-N-((2S,4S)-1-((2-methoxyethyl)sulfonyl)-2-methylpiperidin-4-yl)isoxazole-3-carboxamide], 2.36 µM. In the case of `C[C@H]1C[C@@H](NC(=O)c2cc(C3CC3)on2)CCN1S(=O)(=O)c1cn(C)cn1` [compound 234, 5-cyclopropyl-N-((2S,4S)-2-methyl-1-((1-methyl-1H-imidazol-4-yl)sulfonyl)piperidin-4-yl)isoxazole-3-carboxamide] it was 1.24 µM; in that of `C[C@H]1C[C@@H](NC(=O)c2cc(C3CC3)on2)CCN1S(=O)(=O)CCC(F)(F)F` [compound 236, 5-cyclopropyl-N-((2S,4S)-2-methyl-1-((3,3,3-trifluoropropyl)sulfonyl)piperidin-4-yl)isoxazole-3-carboxamide], 1.04 µM; in that of `CC(C)OCCS(=O)(=O)N1CC[C@H](NC(=O)c2cc(C3CC3)on2)C[C@@H]1C` [compound 237, 5-cyclopropyl-N-((2S,4S)-1-((2-isopropoxyethyl)sulfonyl)-2-methylpiperidin-4-yl)isoxazole-3-carboxamide], 3.46 µM. Turning to `CCCS(=O)(=O)N1CC[C@H](NC(=O)c2cc(C3CC3)on2)C[C@H]1C` [compound 238, 5-cyclopropyl-N-((2R,4S)-2-methyl-1-(propylsulfonyl)piperidin-4-yl)isoxazole-3-carboxamide], the IC50 is above 10 µM. To `CC(C)CS(=O)(=O)N1CC[C@H](NC(=O)c2cc(C3CC3)on2)C[C@H]1C` [compound 239, 5-cyclopropyl-N-((2R,4S)-1-(isobutylsulfonyl)-2-methylpiperidin-4-yl)isoxazole-3-carboxamide] belongs above 10 µM; to `CCCCS(=O)(=O)N1CC[C@H](NC(=O)c2cc(C3CC3)on2)C[C@H]1C` [compound 240, N-((2R,4S)-1-(butylsulfonyl)-2-methylpiperidin-4-yl)-5-cyclopropylisoxazole-3-carboxamide], above 10 µM. As to `C[C@@H]1C[C@@H](NC(=O)c2cc(C3CC3)on2)CCN1S(=O)(=O)c1ccc(Cl)nc1` [compound 241, N-((2R,4S)-1-((6-chloropyridin-3-yl)sulfonyl)-2-methylpiperidin-4-yl)-5-cyclopropylisoxazole-3-carboxamide], the IC50 was above 10 µM.

`C[C@@H]1C[C@@H](NC(=O)c2cc(C3CC3)on2)CCN1S(=O)(=O)N1CCCC1` [compound 242, 5-cyclopropyl-N-((2R,4S)-2-methyl-1-(pyrrolidin-1-ylsulfonyl)piperidin-4-yl)isoxazole-3-carboxamide]: the IC50 was above 10 µM. Consider `C[C@@H]1C[C@@H](NC(=O)c2cc(C3CC3)on2)CCN1S(=O)(=O)N1CCN(C)CC1` [compound 243, 5-cyclopropyl-N-((2R,4S)-2-methyl-1-((4-methylpiperazin-1-yl)sulfonyl)piperidin-4-yl)isoxazole-3-carboxamide], for which the IC50 was 1.76 µM. As for `CCOC(=O)CS(=O)(=O)N1CC[C@@H](NC(=O)c2cc(C3CC3)on2)C[C@@H]1C` [compound 245, ethyl 2-(((2S,4R)-4-(5-cyclopropylisoxazole-3-carboxamido)-2-methylpiperidin-1-yl)sulfonyl)acetate], the IC50 was above 10 µM. With `C[C@H]1C[C@H](NC(=O)c2cc(C3CC3)on2)CCN1S(=O)(=O)CC(F)(F)F` [compound 246, 5-cyclopropyl-N-((2S,4R)-2-methyl-1-((2,2,2-trifluoroethyl)sulfonyl)piperidin-4-yl)isoxazole-3-carboxamide], the IC50 is above 10 µM.

As usually defined, the IC50 is the point on the concentration scale where inhibition reaches its midpoint.
